In patent US12358901B2, “KV3 modulators” (priority 2018, dated 2025):
Several values for one entry are separate records, joined by “and”; a condition that tells them apart may be missing. Equal entries are not always repeated.

Key:
[1] = target: human Kv3.1 channels (hKv3.1) (Homo sapiens, UniProt P48547); assay: cell-based; assay type: cell-based; conditions: for Kv3.1 pEC50: HEK-hKv3.1 cells, -15 mV voltage step, normalised to 50 microM reference compound; for Kv3.1 max R %: maximum response relative to reference compound (50 microM)
Description: The ability of the compounds of the invention to modulate the voltage-gated potassium channel subtypes Kv3.3/Kv3.2/Kv3.1 may be determined using the following assay. Analogous methods may be used to investigate the ability of the compounds of the invention to modulate other channel subtypes.
To assess compound effects on human Kv3.1 channels (hKv3.1):
Human embryonic kidney (HEK)-hKv3.1 cell line is generated by transfecting HEK-293 cells with an expression vector with human Kv3.1 (NM_004976.4). Cells are cultured with MEM supplemented with 10% Heat-Inactivated FBS, 2 mM L-glutamine, 1% Penicillin-Streptomycin, and 0.6 mg/ml of Geneticin (G418). HEK-hKv3.1b cells were amplified in T175 cm2 flask at 37° C. with 5% CO2, using MEM amplification medium, containing the G418 selection antibiotic (0.6 mg/ml). Cells were detached every 3-4 days, using DPBS to wash twice the flask, then TrypLE to dislodge the cells, and re-plated at a density of 2-4×10^6 cells/flask.
The day of the experiment, cells are removed from the incubator and the culture medium removed. Cells are washed with 5 ml of Dulbecco's PBS (DPBS) calcium and magnesium free and detached by the addition of 3 ml Versene (Invitrogen, Italy) followed by a brief incubation at 37° C. for 5 minutes. The flask is tapped to dislodge cells and 10 ml of DPBS containing calcium and magnesium is added to prepare a cell suspension. The cell suspension is then placed into a 15 ml centrifuge tube and centrifuged for 2 min at 1200 rpm. After centrifugation, the supernatant is removed and the cell pellet re-suspended in 4 ml of DPBS containing calcium and magnesium using a 5 ml pipette to break up the pellet. Cell suspension volume is then corrected to give a cell concentration for the assay of approximately 3 million cells per ml.
Experiments are conducted at r.t. using IonWorks Quattro™ planar array electrophysiology technology (Molecular Devices Corp.) with PatchPlate™ PPC. Stimulation protocols and data acquisition are carried out using a microcomputer (Dell Pentium 4). Planar electrode hole resistances (Rp) are determined by applying a 10 mV voltage step across each well. These measurements are performed before cell addition. After cell addition and seal formation, a seal test is performed by applying a voltage step from −80 mV to −70 mV for 160 ms. Following this, amphotericin-B solution is added to the intracellular face of the electrode to achieve intracellular access. Cells are held at −70 mV. Leak subtraction is conducted in all experiments by applying 50 ms hyperpolarizing (10 mV) prepulses to evoke leak currents followed by a 20 ms period at the holding potential before test pulses.
For hKv3.2 and hKv3.1, assays from the holding potential of −70 mV, a first test pulse at −15 mV was applied for 100 ms and after 100 ms at −70 mV a second pulse at +40 mV was applied for 50 ms. Cells were then maintained for 100 ms at −100 mV and another pulse from −70 mV to +40 mV (duration 50 ms) was applied to clamp later the voltage at −40 mV during 200 ms
The intracellular solution contains the following (in mM): K-gluconate 100, KCl 54, MgCl2 3.2, HEPES 5, adjusted to pH 7.3 with KOH. Amphotericin-B solution is prepared as 50 mg/ml stock solution in DMSO and diluted to a final working concentration of 0.1 mg/ml in intracellular solution. The external solution is Dulbecco's Phosphate Buffered Saline (DPBS) and contained the following (in mM): CaCl2 0.90, KCl 2.67, KH2PO4 1.47, MgCl·6H2O 0.493, NaCl 136.9, Na3PO4 8.06, with a pH of 7.4.
Compounds of use in the invention (or reference compounds such as N-cyclohexyl-N-[(7,8-dimethyl-2-oxo-1,2-dihydro-3-quinolinyl)methyl]-N-phenylurea) are dissolved in dimethylsulfoxide (DMSO) at a stock concentration of 10 mM. These solutions are further diluted with DMSO using a Biomek FX (Beckman Coulter) in a 384 compound plate. Each dilution (1 μL) is transferred to another compound plate and external solution containing 0.05% pluronic acid (66 μL) is added. […]

[2] = tested on: Salmonella typhimurium (TA1535, TA1537, TA98 and TA100) and Escherichia coli WP2 uvrA (pKM101); assay: Ames testing (bacterial mutagenicity, with and without S9-mix); conditions: 5 to 5000 ug/plate, absence and presence of S9-mix

Row | SMILES | Kv3.1 pEC50 [1] | Kv3.1 max R % [1] | Ames Result (compound) [2]
1 | CC[C@H]1NC(=O)N(c2cnc(Oc3ccc(C)c4c3C3(CC3)CO4)cn2)C1=O [Example 9, (5R)-5-ethyl-3-[5-(7-methylspiro[2H-benzofuran-3,1′-cyclopropane]-4-yl)oxypyrazin-2-yl]imidazolidine-2,4-dione] | 5.88 and 5.90 | 172% and 146% | Non- mutagenic
2 | CC[C@H]1NC(=O)N(c2cnc(Oc3cccc4c3C3(CC3)CO4)cn2)C1=O [Example 10, (5R)-5-ethyl-3-(5-spiro[2H-benzofuran-3,1′-cyclopropane]-4-yloxypyrazin-2-yl)imidazolidine-2,4-dione] | 5.45 and 5.63 | 153% and 147% | Non- mutagenic
3 | Cc1ccc(Oc2ncc(N3C(=O)NC(C)(C)C3=O)cn2)c2c1OCC21CC1 [RE5, reference compound] | 5.14 | 158% | Non- mutagenic
4 | CC[C@H]1NC(=O)N(c2ccc(Oc3ccc(C)c4c3C3(CC3)CO4)nc2)C1=O [RE11, reference compound] | 6.1 | 152% | Non- mutagenic
5 | CC[C@H]1NC(=O)N(c2ccc(Oc3cccc4c3C3(CC3)CO4)nc2)C1=O [RE13, (5R)-5-ethyl-3-(6-spiro[2H-benzofuran-3,1′-cyclopropane]-4-yloxy-3-pyridyl)imidazolidine-2,4-dione, reference compound] | 6.1 | 149% | –
